Source: US20260235624A1, “PEPTIDES AND THEIR LABELLED DERIVATIVES SUITABLE FOR USE IN THE DIAGNOSIS OF DIABETES OR ITS COMPLICATIONS” (Instytut Medycyny Doswiadczalnej i Klinicznej im. Miroslawa …, priority 2023, published 2026)

Legend:
ADAM17 = assay: Hydrolysis of the ADAM17 substrate in urine samples, increase in fluorescence; assay type: biochemical, human; settings: control urine samples Z1-Z10 (healthy subjects); 20 μL of 45 μM substrate, buffer pH 9.0, 37° C., 30 minutes, triplicate
Experimental: (§1) 20 μL of a 45 μM substrate solution of the peptide of the invention or its labelled derivative were mixed with 100 μL of the measurement buffer (25 mM Tris-Cl, 2.5 μM ZnCl2 and 0.005% Brij-35, pH 9.0) and 80 μL of test urine from a patient diagnosed with diabetes or a healthy person (control).
(§2) When fluorescently labelled derivatives were used, measurements were carried out in triplicate in a 96-well plate using a CLARIOStar plate reader (BMG Labtech, Ortenberg, Germany) at 37° C. for 30 minutes. After this time, the measurement was finished and the increase in fluorescence was determined. If a fluorescence increase of more than 0.0001 U/sec was obtained, the urine sample tested was considered to originate from a person with diabetes.

ADAM10 = assay: Hydrolysis of the ADAM10 substrate in urine samples, increase in fluorescence; assay type: biochemical, human; settings: control urine samples Z1-Z10 (healthy subjects); 20 μL of 45 μM substrate, buffer pH 9.0, 37° C., 30 minutes, triplicate
Experimental: as §1, §2

Substance	Increase in concentration of labelled degradation products in the urine sample, Mean (ADAM17)	Increase in concentration of labelled degradation products in the urine sample, Mean (ADAM10)
ABZ-Asn-Tyr-Met-Ala-Leu-Arg-Arg-Tyr(3-NO2)—NH2	0.000000	
ABZ-Lys-Ile-Ile-Asn-Leu-Lys-Arg-Tyr(3-NO2)—NH2		0.000000
